The text below walks through data of patent US6063783A, “Analgesic use of triazolo-pyridazine derivatives” (Merck Sharp & Dohme Ltd., priority 1997, dated 2000).

In data set [1] the test system is carrageenan-induced hyperalgesia. Kind of data set: rat carrageenan-induced hyperalgesia assay. The format is in vivo. The settings on record: male Sprague Dawley rats, oral, given 2 h after carrageenan, mechanical thresholds at 3 h, read-out: ID50, inhibition of carrageenan-induced hyperalgesia. On the procedure:
Carrageenan-induced hyperalgesia
Male Sprague Dawley rats (100-120 g) received an intraplantar injection of carrageenan (4.5 mg) and mechanical thresholds were determined 3 h later using a modified Ugo Basile Algesiometer. Control rats received saline (0.15 ml i.pl.). Hyperalgesia was defined as the difference in vocalisation threshold for saline- and carrageenan-injected rats. Paw pressure scores for drug-treated rats were expressed as a percentage of this response. Compound A (1, 3 or 10 mg/kg) or vehicle were administered 2 h after carrageenan.
(§1) Compound A was suspended in 0.5% methocel and administered orally. Doses refer to the free base.

A further data set relates to chain pulling. The experiment in a line: chain pulling (sedation) in rats. The format is in vivo, rat. The settings on record: food-deprived P.V.G. rats; oral doses of up to 100 mg/kg; chain pulls recorded for up to 60 min. Here is the method: Response sensitivity training and testing was carried out in standard operant conditioning chambers. Each chamber was equipped with a chain suspended from the centre of the ceiling and connected to a micro switch. Food pellets were delivered into a food magazine positioned at floor level in the centre of the front wall. Food-deprived P.V.G. rats (280-380 g) were trained to pull a chain for access to food pellets according to a random interval (RI) 30 s schedule. Animals received Compound A at 1, 3, 10, 30 or 100 mg/kg or vehicle and the number of chain pulls recorded for up to 60 min. Response rates for drug-treated animals are then expressed as a percentage of response rates for vehicle-treated rats.
as §1

On to `Cn1ncnc1COc1nn2c(-c3ccccc3)nnc2cc1N1CCCC1` [Compound A, 6-(2-methyl-2H-1,2,4-triazol-3-ylmethoxy)-3-phenyl-7-(pyrrolidin-1-yl)-1,2,4-triazolo[4,3-b]pyridazine], for which the ED50 in data set [1] is 5.3 mg/kg. Moreover, in the data set on chain pulling, the “effects on chain pulling (sedation)” value is given as “no effects”.
